Results from PubChem BioAssay (NCI).
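The compound was tested at five concentrations on cells cultured in 96-well plates, with a 48-hour exposure period. Definition used: TGI = concentration required for complete inhibition of growth.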

Legend:
Test in all cases: NCI anticancer screen, dose series, 48 h
NCI-H226 lung = tested on: NCI-H226 lung
HOP-92 NSCLC = tested on: HOP-92 NSCLC
HCT-15 colon = tested on: HCT-15 colon
NCI/ADR-RES ovarian = tested on: NCI/ADR-RES ovarian
CAKI-1 renal = tested on: CAKI-1 renal
HOP-62 NSCLC = tested on: HOP-62 NSCLC
EKVX NSCLC = tested on: EKVX NSCLC
OVCAR-4 ovarian = tested on: OVCAR-4 ovarian
SN12C renal = tested on: SN12C renal
SK-MEL-5 melanoma = tested on: SK-MEL-5 melanoma
OVCAR-3 ovarian = tested on: OVCAR-3 ovarian
NCI-H522 lung = tested on: NCI-H522 lung
HT29 colon = tested on: HT29 colon
OVCAR-8 ovarian = tested on: OVCAR-8 ovarian
COLO 205 colon = tested on: COLO 205 colon
UACC-257 melanoma = tested on: UACC-257 melanoma
786-0 renal = tested on: 786-0 renal
SK-OV-3 ovarian = tested on: SK-OV-3 ovarian
KM12 colon = tested on: KM12 colon
ACHN renal = tested on: ACHN renal
HCT-116 colon = tested on: HCT-116 colon
SF-295 CNS = tested on: SF-295 CNS
MDA-N = tested on: MDA-N
SF-539 CNS = tested on: SF-539 CNS
MALME-3M melanoma = tested on: MALME-3M melanoma
BT-549 breast = tested on: BT-549 breast
RXF 393 renal = tested on: RXF 393 renal
DU-145 prostate = tested on: DU-145 prostate
A498 renal = tested on: A498 renal
SF-268 CNS = tested on: SF-268 CNS
TK-10 renal = tested on: TK-10 renal
RPMI-8226 leukemia = tested on: RPMI-8226 leukemia
U251 CNS = tested on: U251 CNS
MOLT-4 leukemia = tested on: MOLT-4 leukemia
MDA-MB-231 breast = tested on: MDA-MB-231 breast
LOX IMVI melanoma = tested on: LOX IMVI melanoma
NCI-H23 lung = tested on: NCI-H23 lung
SNB-75 CNS = tested on: SNB-75 CNS
MDA-MB-435 = tested on: MDA-MB-435
T-47D breast = tested on: T-47D breast
OVCAR-5 ovarian = tested on: OVCAR-5 ovarian
SW-620 colon = tested on: SW-620 colon
SK-MEL-28 melanoma = tested on: SK-MEL-28 melanoma
UO-31 renal = tested on: UO-31 renal
MCF7 breast = tested on: MCF7 breast
PC-3 prostate = tested on: PC-3 prostate
HL-60(TB) leukemia = tested on: HL-60(TB) leukemia
HS 578T breast = tested on: HS 578T breast
SNB-19 CNS = tested on: SNB-19 CNS
UACC-62 melanoma = tested on: UACC-62 melanoma
IGROV1 ovarian = tested on: IGROV1 ovarian
CCRF-CEM leukemia = tested on: CCRF-CEM leukemia
M14 melanoma = tested on: M14 melanoma
K-562 leukemia = tested on: K-562 leukemia
A549 NSCLC = tested on: A549 NSCLC
SK-MEL-2 melanoma = tested on: SK-MEL-2 melanoma
HCC-2998 colon = tested on: HCC-2998 colon
NCI-H460 lung = tested on: NCI-H460 lung
SR leukemia = tested on: SR leukemia

Measured: TGI

N#CCc1nc2cc(C(F)(F)F)ccc2s1
75.8 µM: OVCAR-3 ovarian
94.8 µM: NCI-H23 lung
34.5 µM: NCI-H522 lung
87.4 µM: OVCAR-8 ovarian
48.1 µM: HOP-92 NSCLC
95.2 µM: HCT-116 colon
80.2 µM: LOX IMVI melanoma
not listed: SK-MEL-28 melanoma | UO-31 renal | MCF7 breast | PC-3 prostate | HL-60(TB) leukemia | HS 578T breast | SNB-19 CNS | UACC-62 melanoma | IGROV1 ovarian | CCRF-CEM leukemia | M14 melanoma | K-562 leukemia | A549 NSCLC | SK-MEL-2 melanoma | HCC-2998 colon | NCI-H460 lung | SR leukemia
> 100 µM: all other assays above

O=C1C=C(O)c2c(O)ccc(O)c2C1=O
not listed: EKVX NSCLC | SN12C renal | SR leukemia
> 100 µM: all other assays above

O=C1CCC2(c3ccc(Cl)cc3)Nc3ncncc3N12 (stereo not given)
not listed: CAKI-1 renal | HOP-62 NSCLC | SK-MEL-5 melanoma | COLO 205 colon | HCT-116 colon | RXF 393 renal | A498 renal | RPMI-8226 leukemia | MDA-MB-231 breast | T-47D breast | SK-MEL-28 melanoma | HL-60(TB) leukemia | SR leukemia
> 10 µM: all other assays above

CC1CCOc2ccc(cc2)C=Nc2ccc(cc2)-c2ccc(cc2)N=Cc2ccc(cc2)OCC1 (stereo not given)
not listed: HOP-62 NSCLC | MALME-3M melanoma | RXF 393 renal | A498 renal | SNB-75 CNS | T-47D breast | SNB-19 CNS | UACC-62 melanoma
> 100 µM: all other assays above
